Test results: article PMC4140803 (PLoS ONE, 2014)
Where two headings read alike, the source gives them in different places.

Experiments:
PBMC = assay type: cell-based, human
Procedure: C8166 cells were kindly donated by the Medical Research Council (MRC), the AIDS Reagent Project, U.K, and were maintained in RPMI-1640 with 10% FBS in humidified incubator with 5% CO2 at 37°C [16]. Peripheral blood mononuclear cells (PBMCs) were isolated from healthy donors by Ficoll-Hypaque density gradient centrifugation as described by the manufacturer’s instructions (Ethical Approval Number: SWYX-2011016). PBMCs were stimulated with 10% FBS, 5 µg/ml PHA and 50 U/ml IL-2 for three days before experiments.
(§1) Cytotoxicity was assayed by MTT colorimetric reduction as previously described, [18]. Briefly, a serial concentration of FNC was added to a 96-well plate, followed by 100 µl 4×10^4 C8166 cells (5×10^5 cells for PBMC). After incubation at 37°C, 5% CO2 for 3 days (7 days for PBMCs), 20 µl MTT was added each well. After incubation for 4 hours, 100 µl supernatant was removed and 100 µl 20%SDS-50%DMF was added. The plate was incubated at 37°C overnight. The optical absorbance was measured by ELISA reader (ELx800, Bio-Tek, VT, USA) at 570 nm and 630 nm, and 50% cytotoxicity concentration (CC50) was calculated. 3TC and AZT were used as control.

HIV-1TC-1 = assay: Anti-HIV activity in vitro, PBMC; assay type: cell-based; settings: Human immunodeficiency virus 1, HIV-1TC-1, CRF01AE, clinical strain
Procedure: (§2) C8166 cells were infected with different HIV-1 or HIV-2 laboratory strains and resistant strains at different serial concentration compounds with multiplicity of infection (MOI) of 0.075∼0.6. PHA-stimulated PBMCs were incubated with different clinical strains in RPMI-1640 (with 10% FBS, 50 U/ml IL-2 and 2 µg/ml polybrene) at MOI of 0.1. After infection at 37°C in 5% CO2 for 2 hours, C8166 cells were washed three times to remove free viruses and re-suspended by RPMI-1640 (with 10% FBS). 100 µl 4×10^4 cells (5×10^5 cells for PBMC) were seeded each well in a 96-well plate with gradient concentration of FNC. The plate was placed in a humidified incubator at 37°C, 5% CO2. 3TC and AZT were used as control. After incubation of 3–7 days, the percentage inhibition of syncytia formation was scored or the level of p24 was measured by ELISA [19] and 50% effective concentration (EC50) were calculated.

HIV-1KM018 = assay: Anti-HIV activity in vitro, PBMC; assay type: cell-based; settings: for EC50: read-out: EC50s
Procedure: as §2

Wild type HIV-1IIIB = assay: Anti-HIV activity / phenotypic analysis in C8166; assay type: cell-based; settings: for EC50: Human immunodeficiency virus 1, C8166, wild type HIV-1IIIB; for FC, fold change, the ratio of EC50(Mut)/EC50(WT): wild type HIV-1IIIB (reference)
HIV-1RF = assay: Anti-HIV activity in vitro, C8166; assay type: cell-based; settings: Human immunodeficiency virus 1, subtype B
Procedure: as §2

HIV-1_74V = assay: Anti-HIV activity in vitro, C8166; assay type: cell-based; settings: Human immunodeficiency virus 1, subtype B, NRTI-resistant
Procedure: as §2

HIV-2ROD = assay: Anti-HIV activity in vitro, C8166; assay type: cell-based; settings: Human immunodeficiency virus 2, subtype A
Procedure: as §2

HIV-2CBL-20 = assay: Anti-HIV activity in vitro, C8166; assay type: cell-based; settings: Human immunodeficiency virus 2; C8166, HIV-2CBL-20, subtype A
Procedure: as §2

3TCP-21 HIV-1IIIB = assay: Phenotypic analysis of resistant variants in C8166; assay type: cell-based; settings: for EC50: Human immunodeficiency virus 1, C8166, 3TC-selected HIV-1IIIB at P-21; for FC, fold change, the ratio of EC50(Mut)/EC50(WT): 3TCP-21 HIV-1IIIB vs wild type HIV-1IIIB
HIV-1IIIB [1] = assay: Selection of drug-resistant HIV-1 variants and genotypic resistance assay; assay type: cell-based
[2] = test system: HIV-1L10R/M46I/L63P/V82T/I84V; assay: microbe, parasite or virus in culture; assay type: cell-based; settings: Human immunodeficiency virus 1, C8166, read-out: EC50s
FNCP-21 HIV-1 IIIB = assay: Phenotypic analysis of resistant variants in C8166; assay type: cell-based; settings: for EC50: Human immunodeficiency virus 1, C8166, FNC-selected HIV-1IIIB at P-21; for FC, fold change, the ratio of EC50(Mut)/EC50(WT): FNCP-21 HIV-1 IIIB vs wild type HIV-1IIIB
HIV-1WAN T69N = assay: microbe, parasite or virus in culture; assay type: cell-based; settings: for EC50: Human immunodeficiency virus 1, PBMC, HIV-1WAN T69N, CRF01AE, clinical strain
C8166 cells = assay type: cell-based, human
Procedure: as §1

[3] = test system: pNL4-3 gp41 (36G) V38A/N42T; assay type: cell-based, HIV-1; settings: C8166, pNL4-3 gp41 (36G) V38A/N42T, subtype B, FI-resistant
HIV-1IIIB [4] = assay: Quantification of HIV-1 DNA species by real-time quantitative PCR; settings: HIV-1IIIB infected C8166, 2 nM FNC or 2 µM 3TC
HIV-1 [5] = assay: Activity assay with 50% human serum in C8166; assay type: cell-based; settings: C8166, 50% human serum, data not shown
HIV-1 [6] = assay: Anti-HIV activity in vitro, summary over HIV-1 strains; assay type: cell-based; settings: Human immunodeficiency virus 1
Procedure: as §2

HIV-2 = assay: Anti-HIV activity in vitro, summary over HIV-2 strains; assay type: cell-based; settings: Human immunodeficiency virus 2; range over HIV-2 strains; read-out: EC50s on HIV-2
Procedure: as §2

[7] = Human immunodeficiency virus 1, PBMC, HIV-1KM018, B/C recombinant, clinical strain

Row | SMILES | CC50s (PBMC; PBMC, MTT, 7 days) [µM] | EC50 (HIV-1TC-1) [µM] | EC50 (HIV-1KM018; [7]) [µM] | EC50 (Wild type HIV-1IIIB) [µM] | EC50 (HIV-1RF) [nM] | EC50 (HIV-1_74V) [µM] | EC50 (HIV-2ROD) [nM] | EC50 (HIV-2CBL-20) [nM] | EC50 (3TCP-21 HIV-1IIIB) [µM] | EC50 [2] [µM] | EC50 (FNCP-21 HIV-1 IIIB) [µM] | EC50 (HIV-1WAN T69N) [µM] | CC50s (C8166 cells; C8166 cells, MTT, 3 days) [µM] | EC50 [3] [µM] | FC, fold change, the ratio of EC50(Mut)/EC50(WT) (Wild type HIV-1IIIB) | FC, fold change, the ratio of EC50(Mut)/EC50(WT) (3TCP-21 HIV-1IIIB) | FC, fold change, the ratio of EC50(Mut)/EC50(WT) (FNCP-21 HIV-1 IIIB) | other results
1 | Nc1ccn([C@@H]2CS[C@H](CO)O2)c(=O)n1 [3TC, lamivudine, reference compound] | 825.98 ± 30.52 | 0.0517 ± 0.00308 | 0.34 ± 0.0122 | 0.202 ± 0.0341 | 350 ± 206 | 0.243 ± 0.0101 | 257 ± 43.6 | 319 ± 29.8 | 690 | 0.416 ± 0.0118 | 124 | 0.0865 ± 0.011 | 930 ± 190 | 0.386 ± 0.0362 | – | – | – | inhibition at 1 µM (HIV-1IIIB [1]; Human immunodeficiency virus 1, C8166): > 99%
2 | Cc1cn([C@H]2C[C@H](N=[N+]=[N-])[C@@H](CO)O2)c(=O)[nH]c1=O [AZT, zidovudine] | – | – | – | 0.00939 ± 0.00122 | – | – | – | – | 0.0131 ± 0.00243 | – | 0.0123 ± 0.00024 | – | – | – | 1 | 1.40 | 1.31 | CC50s (PBMC; human): 845.31 ± 66.23 µM; EC50 (HIV-1KM018; Human immunodeficiency virus 1, PBMC): 0.478 ± 0.0455 µM; CC50s (C8166 cells; human): 5090 ± 260 µM
3 | [N-]=[N+]=N[C@]1(CO)O[C@@H](n2ccc(N)nc2=O)[C@@H](F)[C@@H]1O [FNC, 2′-deoxy-2′-β-fluoro-4′-azidocytidine] | 3.07 ± 0.23 | 0.00034 ± 4e-05 | 0.00692 ± 0.00059 | 0.00011 ± 2e-05 | 0.03 ± 0.02 | 0.00011 ± 1e-05 | 0.018 ± 0.006 | 0.025 ± 0.002 | 0.0255 ± 0.00186 | 0.00014 ± 1e-05 | 0.0808 ± 0.00814 | 0.00045 ± 9e-05 | 2380 ± 50 | 0.00036 ± 3e-05 | 1 | 232 | 735 | levels of ssDNA (strong-stop minus-strand DNA) (HIV-1IIIB [4]; 1 h, 2 h and 4 h post-infection): significantly reduced; late RT level (full-length double-stranded DNA) (HIV-1IIIB [4]; 4 h, 6 h and 8 h post-infection, P<0.01): significantly reduced; EC50s against HIV-1 in presence of human serum (HIV-1 [5]): unaffected; suppressive effects fold stronger than 3TC (HIV-1KM018; clinical strains in PBMC, first value of the sentence): 49 fold; inhibition at 0.0005 µM (HIV-1IIIB [1]; Human immunodeficiency virus 1, HIV-1IIIB infected C8166, 500 pM FNC): > 99%; EC50 (HIV-1 [6]; range over HIV-1 strains, read-out: EC50s on HIV-1): 0.03 to 6.92 nM; EC50 (HIV-1 [6]; wild-type HIV-1IIIB and HIV-1RF, read-out: 50% effective concentration values (EC50)): 0.03 to 0.11 nM; EC50 (HIV-2): 0.018 to 0.025 nM; suppressive effects fold stronger than 3TC (HIV-1WAN T69N; clinical strains in PBMC, second value of the sentence): 192 fold
